These are literature values, as cited in patent US12269021B2, “Artificial protein catalyst” (Glytech, Inc., priority 2019, dated 2025).

The subject of data set [1] is αvβ3 and αvβ5 integrins. To be noted: integrins overexpressed on the cancer cell surface.
In data set [2] the test system is various cancer cell strains.

cRGD: in data set [1], the integrin inhibition entry was “inhibits”.
With `CC(C)=CCC/C(C)=C/CC/C(C)=C/COc1ccc2ccc(=O)oc2c1` [Umbelliprenin], the cytotoxic activity entry in data set [2] is recorded as “cytotoxic activity”.
